{"source": "patent US8871789B2", "about": "“Method of preventing or treating viral infection” (The United States of America, as represented by the …, priority 2010, dated 2014)", "key": {"JMJD2E": {"biological_target": "T1, JMJD2E (Homo sapiens, UniProt B2RXH2)", "T1 sequence (B2RXH2 1-506)": "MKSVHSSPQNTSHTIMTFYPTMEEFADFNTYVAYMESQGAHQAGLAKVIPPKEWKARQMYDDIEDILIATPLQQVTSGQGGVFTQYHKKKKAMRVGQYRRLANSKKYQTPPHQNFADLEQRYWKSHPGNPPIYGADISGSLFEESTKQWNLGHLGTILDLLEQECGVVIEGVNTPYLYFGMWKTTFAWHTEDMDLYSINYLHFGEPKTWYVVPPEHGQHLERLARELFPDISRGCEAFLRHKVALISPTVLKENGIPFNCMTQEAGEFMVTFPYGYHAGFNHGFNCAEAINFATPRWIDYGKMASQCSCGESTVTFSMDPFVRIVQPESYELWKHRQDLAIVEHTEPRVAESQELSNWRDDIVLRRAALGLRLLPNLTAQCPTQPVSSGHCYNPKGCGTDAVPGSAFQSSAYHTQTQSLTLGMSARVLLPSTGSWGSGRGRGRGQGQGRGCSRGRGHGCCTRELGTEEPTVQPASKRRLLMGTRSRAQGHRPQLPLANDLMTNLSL", "assay": "AlphaLISA assay, JMJD2E histone demethylase inhibition", "assay_type": "biochemical", "conditions": "Table 2; JMJD2E; AlphaLISA, in triplicate; read-out: IC50"}, "HSV-1 [1]": {"system": "HSV-1", "assay": "HSV-1 IE mRNA levels in infected HFF cells", "assay_type": "cell-based", "protocol": "FIG. 13 is a line graph showing viral IE (ICP4, ICP27, and ICP22) and control (S15, Sp1, and TBP) mRNA levels in HFF cells treated with DMSO or the indicated concentrations of ML324 for 3 hours and infected with HSV-1 (0.1 PFU per cell) for 3 hours. *P<0.0001, two-way ANOVA with Tukey's post hoc test. Data are means±SEM.\nHSV-1 IE mRNA levels of ICP4 and ICP27 decrease in cells infected in the presence of DMOG. Human foreskin fibroblast (HFF) cells were infected with HSV-1 at 0.1 PFU/cell for 3 hrs in the presence of increasing concentrations of DMOG. Cells were harvested and the levels of viral IE (ICP4, ICP27) and cell control (s15) mRNAs were assessed by qRT-PCR.\nAll experiments were performed as described in Liang et al., Sci. Transl. Med. 5, 167ra5 (2013). N-(3-(dimethylamino)propyl)-4-(8-hydroxyquinolin-6-yl)benzamide (designated ML324) has the following characteristics: N-(3-(dimethylamino)propyl)-4-(8-hydroxyquinolin-6-yl)benzamide (1). LC-MS: rt (min)=3.033; ^1H NMR (400 MHz, DMSO-d6) δ 1.84-1.98 (m, 2H), 2.79 (s, 3H), 2.80 (s, 3H), 3.12 (ddd, J=10.2 Hz, 5.4 Hz and 5.2 Hz, 2H), 3.37 (q, 2H), 7.50 (s, 1H), 7.66 (dd, J=8.2 Hz and 4.3 Hz, 1H), 7.84 (s, 1H), 7.88-7.94 (m, 2H), 7.96-8.02 (m, 2H), 8.50 (d, J=8.2 Hz, 1H), 8.71 (t, J=5.6 Hz, 1H), 8.90 (d, J=4.1 Hz, 1H), 9.34 (brs, 1H); HRMS (ESI) m/z (M+H)^+ C21H24N3O2, 350.1867. found 350.1863."}, "HSV-1 [2]": {"system": "HSV-1", "assay_type": "cell-based, Balb/c mice", "set-up": "reduction of viral reactivation (viral yield): unit of the concentration uncertain", "protocol": "FIG. 18 is a dot plot showing latently infected ganglia that were explanted in the presence of DMSO, ACV (100 mM), or ML324 (50 mM) for 48 hrs. Viral yields were determined from one half of each ganglia at 48 hrs (DMSO, ACV, ML324) and from the other half of each ganglia after drug reversal for an additional 72 hrs (ACV-R, ML324-R) [Wilcoxon matched pairs signed rank test, ACV vs ACV-R n=8, ML324 vs ML324-R n=10]. Data are means±SEM.\nFIG. 19 is a dot plot showing viral yields from HSV-1 latently infected trigeminal ganglia that were explanted in the presence of DMSO, or 2 mM DMOG or 50 mM ML324 for 48 hours (DMSO versus DMOG: P=0.0015, Wilcoxon matched-pairs signed rank test; n=12; DMSO versus ML324: P<0.0001; n=20). Data are means±SEM.\nViral yields decrease from HSV-1 latently infected ganglia explanted in the presence of LSD1 or JMJD2 inhibitors (FIG. 11). Balb/c mice were infected with 5×10^6 PFU HSV-1 (strain F) per eye after corneal scarification. Latently infected mice were sacrificed 45 days post clearance of the primary infection and trigeminal ganglia were rapidly explanted into culture in the presence of 2 mM DMOG, 2 mM TCP, or control (DMSO or ACV, acyclovir) for 48 hours. Post explant incubation, the ganglia were homogenized and briefly sonicated. The reactivated viral yield of each ganglia was determined by titering the clarified supernatant on Vero cells. Statistical comparisons were made using Wilcoxon signed rank test (paired ganglia) with a statistical significance of <0.05. Each data point was the result of a single ganglia divided and treated in the presence and absence of DMSO and DMOG or DMSO and TCP. Therefore, a Wilcoxon signed rank test was used to assess differences between each treated and untreated sample. The significant difference between DMSO control and DMOG was p=0.0018. This test used an exact p-value for small sample sizes with an a level of 0.05. n=20. Analyses were made using Prism (V5.0a) and are expressed as the mean+/−s.e.m."}, "HSV-1 [3]": {"system": "HSV-1", "assay_type": "cell-based, mouse", "experimental": "FIG. 20 is a dot plot showing latently infected trigeminal ganglia that were explanted in the presence of DMSO, 100 mM ACV, or 50 mM ML324 for 48 hours. The total number of UL29+ neurons per ganglia is graphed, representing the number of neurons undergoing viral reactivation. Data are means±SEM."}, "HSV-1 [4]": {"system": "HSV-1", "assay": "MRC-5 cells, ML324 added at times relative to HSV-1 infection", "assay_type": "cell-based", "conditions": "added at 2 hours after infection; HSV-1 1.0 MOI; FIG. 17", "protocol": "FIG. 17 is a line graph showing MRC-5 cells that were treated with DMSO or ML324 at the indicated time relative to infection with HSV-1 (1.0 MOI). Viral and cellular mRNA levels were determined at 4 hours after infection. Data are means±SEM."}, "[5]": {"conditions": "100 mM ACV or 50 mM ML324, 48 hours"}}, "note": "pIC50: −log10 of the molar value.", "data": [{"smiles": "CN(C)CCCNC(=O)c1ccc(-c2cc(O)c3ncccc3c2)cc1", "note": "[Compound 4, N-(3-(dimethylamino)propyl)-4-(8-hydroxyquinolin-6-yl)benzamide]", "values": [{"measurement": "pIC50", "setting": "JMJD2E", "result": 6.04}, {"measurement": "pIC50", "setting": "HSV-1 [1]; Human alphaherpesvirus 1, HFF, 3 h, read-out: IC50 for reducing IE gene expression", "result": "~5.00"}, {"measurement": "efficiency relative to DMOG in reducing IE gene expression", "setting": "HSV-1 [1]; ML324 versus DMOG", "result": "~75", "unit": "fold"}, {"measurement": "reduction of viral reactivation (viral yield)", "setting": "HSV-1 [2]; 50 (unit uncertain), 48 hours explant, FIG. 19", "result": 4.5, "unit": "log"}, {"measurement": "viral replication in ganglia after drug withdrawal", "setting": "HSV-1 [2]; after ML324 withdrawal, additional 72 hrs, FIG. 18", "result": "robust viral replication"}, {"measurement": "primary viral reactivation events", "setting": "HSV-1 [3]; 50 mM ML324, 48 hours, FIG. 20", "result": "suppressed"}, {"measurement": "UL29+ cell clusters", "setting": "HSV-1 [3]; [5]", "result": "2 clusters in 48 ganglia sections"}, {"measurement": "isolated UL29+ neurons relative to DMSO", "setting": "HSV-1 [3]; [5]", "result": "most significant reduction"}, {"measurement": "reduction of IE gene transcription when added after infection", "setting": "HSV-1 [4]", "result": "> 50", "unit": "%"}]}]}
